From US9029366B2, “Substituted bicyclic alkoxy pyrazole analogs as allosteric modulators of mGluR5 receptors” (Vanderbilt University, priority 2012, dated 2015)

Legend:
human mGluR5 = human mGluR5 (Homo sapiens, UniProt P41594); test: Cell-based functional Ca2+ mobilization assay (FDSS), potentiation of glutamate EC20 response, HEK293A cells transfected with human mGluR5a (H10H or H12H cell line); details: H10H cell line expressing recombinant human mGluR5, in presence of glutamate EC20, ** = compound is an antagonist; for EC50: read-out: pEC50 (converted); for Emax: HEK293-A
human mGluR5, sequence (P41594 21-1180 isoform P41594-2 limits assumed): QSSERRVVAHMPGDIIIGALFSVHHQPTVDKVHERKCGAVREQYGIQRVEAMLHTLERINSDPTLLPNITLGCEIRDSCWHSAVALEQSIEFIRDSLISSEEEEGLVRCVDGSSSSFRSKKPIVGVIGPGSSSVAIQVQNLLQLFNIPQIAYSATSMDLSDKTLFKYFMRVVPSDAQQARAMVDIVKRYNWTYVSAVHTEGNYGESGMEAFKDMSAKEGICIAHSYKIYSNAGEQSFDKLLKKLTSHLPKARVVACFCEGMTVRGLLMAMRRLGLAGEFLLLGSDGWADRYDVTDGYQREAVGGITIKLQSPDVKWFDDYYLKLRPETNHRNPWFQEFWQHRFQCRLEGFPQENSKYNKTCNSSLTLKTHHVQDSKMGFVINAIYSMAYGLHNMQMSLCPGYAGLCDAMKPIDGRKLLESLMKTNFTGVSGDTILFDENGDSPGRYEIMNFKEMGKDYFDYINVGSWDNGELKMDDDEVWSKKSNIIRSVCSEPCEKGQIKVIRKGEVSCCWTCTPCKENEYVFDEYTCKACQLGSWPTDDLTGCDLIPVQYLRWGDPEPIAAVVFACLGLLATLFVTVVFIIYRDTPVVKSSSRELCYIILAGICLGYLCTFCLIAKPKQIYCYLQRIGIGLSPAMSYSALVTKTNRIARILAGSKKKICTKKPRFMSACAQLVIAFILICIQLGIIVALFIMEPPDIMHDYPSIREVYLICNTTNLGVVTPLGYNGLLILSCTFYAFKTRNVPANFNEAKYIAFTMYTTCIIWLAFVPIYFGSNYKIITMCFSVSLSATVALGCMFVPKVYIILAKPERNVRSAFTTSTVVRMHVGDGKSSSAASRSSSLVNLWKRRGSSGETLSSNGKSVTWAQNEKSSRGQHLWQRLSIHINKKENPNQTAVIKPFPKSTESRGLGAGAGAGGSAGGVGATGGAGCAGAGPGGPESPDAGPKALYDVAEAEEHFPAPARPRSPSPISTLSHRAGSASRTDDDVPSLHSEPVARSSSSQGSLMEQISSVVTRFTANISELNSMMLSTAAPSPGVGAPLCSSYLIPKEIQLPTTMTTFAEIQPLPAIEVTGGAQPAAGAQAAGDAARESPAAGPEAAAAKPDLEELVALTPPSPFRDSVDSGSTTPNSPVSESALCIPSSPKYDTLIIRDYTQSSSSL
Description: Human embryonic kidney (HEK) cells transfected with rat mGluR5 were plated in clear bottom assay plates for assay in a Functional Drug Screening System (FDSS). In the alternative assay, HEK cells transfected with human mGluR5 were plated for assay in the FDSS. In some cases the HEK cells transfected with human mGluR5 are the H10H cell line. Alternatively, the HEK cells transfected with human mGluR5 are the H12H cell line. […] The cells were loaded with a Ca^2+-sensitive fluorescent dye (e.g., Fluo-4), and the plates were washed and placed in the FDSS instrument. After establishment of a fluorescence baseline for about three seconds, the compounds of the present invention were added to the cells, and the response in cells was measured. Five minutes later, an mGluR5 agonist (e.g., glutamate, 3,5-dihydroxyphenylglycine, or quisqualate) was added to the cells, and the response of the cells was measured.
The above described assay can be operated in two modes. In the first mode, a range of concentrations of the present compounds were added to cells, followed by a single fixed concentration of agonist. If a compound acted as a potentiator, an EC50 value for potentiation and a maximum extent of potentiation by the compound at this concentration of agonist was determined by non-linear curve fitting. In the second mode, several fixed concentrations of the present compounds were added to various wells on a plate, followed by a range of concentrations of agonist for each concentration of present compound; the EC50 values for the agonist at each concentration of compound were determined by non-linear curve fitting. A decrease in the EC50 value of the agonist with increasing concentrations of the present compounds (a leftward shift of the agonist concentration-response curve) is an indication of the degree of mGluR5 potentiation at a given concentration of the present compound. An increase in the EC50 value of the agonist with increasing concentrations of the present compounds (a rightward shift of the agonist concentration-response curve) is an indication of the degree of mGluR5 antagonism at a given concentration of the present compound. The second mode also indicates whether the present compounds also affect the maximum response to mGluR5 to agonists.
Human mGluR5a cDNA in pCMV6-XL6 mammalian expression plasmid was purchased from OriGene Technologies, Inc. (catalogue number SC326357) and subcloned into pcDNA3.1(−). Human embryonic kidney (HEK)293A cells were then transfected with human mGluR5a pcDNA3.1(−) using LipofectAmine2000 (Invitrogen) and monoclones were selected and tested for functional response using a Ca^2+ mobilization assay. Monoclones were named for the species (“H” for human) plus the location on the plate (e.g. “10H”).
HEK cells transfected with the human mGluR5a receptor (H10H or H12H cell line) were plated at 15,000 cells/well in clear-bottomed poly-D-lysine-coated assay plates (BD Falcon) in glutamate-glutamine-free growth medium and incubated overnight at 37° C. and 5% CO2. Cell-lines used were either the H10H or H12H cell-lines expressing the human mGluR5 receptor. The following day, the growth medium was removed and the cells were washed with assay buffer containing 1× Hank's balanced salt solution (Invitrogen, Carlsbad, Calif.), 20 mM HEPES, 2.5 mM probenecid, pH 7.4 and left with 20 μL of this reagent. Following this step, the cells were loaded with calcium indicator dye, fluo-4 AM, to a final concentration of 2 μM and incubated for 40-45 min at 37° C. The dye solution was removed and replaced with assay buffer. Cell plates were held for 10-15 min at room temperature and were then loaded into the Functional Drug Screening System 6000 (FDSS 6000, Hamamatsu, Japan).
After establishment of a fluorescence baseline for about 3 seconds, the compounds of the present invention were added to the cells, and the response in cells was measured.

[1] = % of maximal glutamate response

Row | Structure (SMILES) | EC50 (human mGluR5) | Emax (human mGluR5; [1]) | melting point | Emax (%) (human mGluR5; [1])
1 | N#Cc1cccc(COc2cc3n(n2)CCN(C(=O)c2ccc(F)cc2)C3)c1 [Example B3, 3-[({5-[(4-fluorophenyl)carbonyl]-4,5,6,7-tetrahydropyrazolo[1,5-a]pyrazin-2-yl}oxy)methyl]benzonitrile] | 126 nM | 60% | > 300 °C | 
2 | Cc1cccc(C(=O)N2CCn3nc(OCc4ccccc4)cc3C2)n1 [Example B32] | > 10000 nM | 32% | 81.2 °C | 
3 | Cc1ncc(C(=O)N2CCn3nc(OCc4ccccc4)cc3C2)cn1 [Example B83] | > 30200 nM | 27% | 166.4 °C | 
4 | N#Cc1cccc(COc2cc3n(n2)CCN(C(=O)c2cc(F)cc(F)c2)C3)c1 [Example B119] | > 30200 nM | 15% | 124 °C | 
5 | COc1ccc(COc2cc3n(n2)CCN(C(=O)c2ccc(F)cc2)C3)cc1 [Example B15] | > 30200 nM | 22% | 108.3 °C | 
6 | O=C(c1cccc(F)c1F)N1CCn2nc(OCc3ccccc3)cc2C1 [Example B115] | 537 nM | 40% | 122.7 °C | 
7 | O=C(c1ccc(F)cc1)N1CCn2nc(OCc3ccncc3)cc2C1 [Example B20] | 457 nM | 53% | 178.8 °C | 
8 | O=C(c1cc(F)cc(F)c1)N1CCn2nc(OCc3ccccc3F)cc2C1 [Example B132] | 224 nM | 42% | 118.1 °C | 
9 | O=C(c1ccc(F)cn1)N1CCn2nc(OCc3ccccc3)cc2C1 [Example B28] | 1510 nM | 60% | 123 °C | 
10 | COc1cccc(C(=O)N2CCn3nc(OCc4ccccc4)cc3C2)n1 [Example B82] | > 30200 nM | 9% | 97.1 °C | 
11 | O=C(c1ccc(F)cc1)N1CCn2nc(OCc3ccccn3)cc2C1 [Example B18] | > 30200 nM | 22% | 138.1 °C | 
12 | N#Cc1cc(F)cc(C(=O)N2CCn3nc(OCc4cccc(F)c4)cc3C2)c1 [Example B101] | > 30200 nM | 32% | 118.2 °C | 
13 | O=C(c1ncccc1Cl)N1CCn2nc(OCc3ccccc3)cc2C1 [Example B29] | > 30200 nM | 27% | 135.1 °C | 
14 | O=C(c1ccc(F)cc1)N1CCn2nc(OCc3cccc(F)c3)cc2C1 [Example B10] | 89.1 nM | 62% | > 300 °C | 
15 | O=C(c1ccccc1F)N1CCn2nc(OCc3ccccc3F)cc2C1 [Example B134] | 141 nM | 71% | 132.4 °C | 
16 | Cc1ncccc1C(=O)N1CCn2nc(OCc3ccccc3)cc2C1 [Example B34] | > 30200 nM | 28% | 129.2 °C | 
17 | O=C(c1cccc(Cl)c1)N1CCn2nc(OCc3ccc(F)cc3)cc2C1 [Example B111] | 380 nM | 49% | 125.2 °C | 
18 | Cc1ccccc1COc1cc2n(n1)CCN(C(=O)c1ccc(F)cc1)C2 [Example B14] | 2000 nM | 51% | 99.3 °C | 
19 | N#Cc1cc(F)cc(C(=O)N2CCn3nc(OCc4ccccc4)cc3C2)c1 [Example B6] | > 30200 nM | 24% | 117.6 °C | 
20 | O=C(c1cc(F)cc(F)c1)N1CCn2nc(OCc3cccc(F)c3)cc2C1 [Example B94] | 61.7 nM | 25% | 154.7 °C | 
21 | O=C(c1ccc(F)c(C(F)(F)F)c1)N1CCn2nc(OCc3ccccc3)cc2C1 [Example B109] |  | 58% | 135.3 °C | 
22 | Cc1cc(COc2cc3n(n2)CCN(C(=O)c2ccc(F)cc2)C3)ccn1 [Example B4, 5-[(4-fluorophenyl)carbonyl]-2-[(2-methylpyridin-4-yl)methoxy]-4,5,6,7-tetrahydropyrazolo[1,5-a]pyrazine] | > 10000 nM | 26% | 103.4 °C | 
23 | N#Cc1cccc(C(=O)N2CCn3nc(OCc4ccccc4)cc3C2)c1 [Example B5] | 724 nM | 42% | 151.6 °C | 

Row | Structure (SMILES) | EC50 (human mGluR5) | Emax (human mGluR5; [1]) | melting point | Emax (%) (human mGluR5; [1])
24 | O=C(c1ccc(F)cc1F)N1CCn2nc(OCc3cccc(F)c3)cc2C1 [Example B129] | 97.7 nM | 68% | 115.4 °C | 
25 | Cc1nccc(C(=O)N2CCn3nc(OCc4ccccc4)cc3C2)n1 [Example B31] | > 30200 nM | 28% | 134 °C | 
26 | Cc1ccc(C(=O)N2CCn3nc(OCc4ccccc4)cc3C2)cn1 [Example B33] | 3890 nM | 44% | 104.6 °C | 
27 | Cc1ccc(COc2cc3n(n2)CCN(C(=O)c2ccc(F)cc2)C3)cc1 [Example B12] | > 30200 nM | 28% | 156.9 °C | 
28 | COc1ccc(C(=O)N2CCn3nc(OCc4ccccc4)cc3C2)cn1 [Example B35] | > 30200 nM | 27% | 138.6 °C | 
29 | O=C(c1cc(F)cc(F)c1)N1CCn2nc(OCc3ccccc3)cc2C1 [Example B104] | 138 nM | 44.5% | 165.2 °C | 
30 | O=C(c1ccc(F)cc1)N1CCn2nc(OCc3ccc(F)cc3)cc2C1 [Example B9] | 479 nM | 54% | 165.4 °C | 
31 | COc1ccccc1COc1cc2n(n1)CCN(C(=O)c1ccc(F)cc1)C2 [Example B17] | > 10000 nM | 47% | 135.6 °C | 
32 | Cn1c(Cl)ccc1C(=O)N1CCCn2nc(OCc3ccccc3)cc2C1 [Example B90] | 47.9 nM | 74% |  | 
33 | O=C(c1ccc(F)cc1)N1CCn2nc(OCc3ccncc3Cl)cc2C1 [Example B136] | ≥ 10000 nM | 41% |  | 
34 | O=C(c1cccc(Cl)c1)N1CCn2nc(OCc3ccccc3)cc2C1 [Example B43] | 70.8 nM | 51% |  | 
35 | Cn1c(Cl)ccc1C(=O)N1CCn2nc(OCc3ccccc3)cc2C1 [Example B81] | 25.1 nM | 69% |  | 
36 | Cn1ccc(C(=O)N2CCn3nc(OCc4cccc(F)c4)cc3C2)c1 [Example B92] | 537 nM | 52% |  | 
37 | Cn1ccc(COc2cc3n(n2)CCN(C(=O)c2ccc(F)cc2)C3)cc1=O [Example B128] | > 30200 nM | 28% |  | 
38 | O=C(CCC(F)(F)F)N1CCn2nc(OCc3ccccc3)cc2C1 [Example B70] | > 30200 nM | 25% |  | 
39 | C[C@H]1Cn2nc(OCc3ccccc3)cc2CN1C(=O)c1ccc(Cl)n1C [Example B91] | 3630 nM | 69% |  | 
40 | O=C(c1n[nH]c2ccccc12)N1CCn2nc(OCc3ccccc3)cc2C1 [Example B53] | 117 nM | 69% |  | 
41 | O=C(c1cnccn1)N1CCn2nc(OCc3ccccc3)cc2C1 [Example B37] | > 10000 nM | 44% |  | 
42 | O=C(c1ccc(F)c(C(F)(F)F)c1)N1CCn2nc(OCc3ccccc3)cc2C1 [Example B39] |  |  |  | 51%
43 | CS(=O)(=O)c1cccc(COc2cc3n(n2)CCN(C(=O)c2ccc(F)cc2)C3)c1 [Example B122] | > 30200 nM | 28% |  | 
44 | O=C(c1ccc(F)c(F)c1)N1CCn2nc(OCc3ccccc3)cc2C1 [Example B49] | 692 nM | 57% |  | 
45 | O=C(c1ccc(F)cc1)N1CCn2nc(OCc3cc[n+]([O-])cc3)cc2C1 [Example B135] | ≥ 10000 nM | 38% |  | 
